One series has as its target PDEV (UniProt O76074). In words: Cyclic nucleotide phosphodiesterase (PDE) assay, measurement of inhibition of PDEV. The class given is biochemical, rabbit or human. Particulars: PDEV isolated from rabbit and human tissues; 1 μM cGMP, 10% DMSO, 30° C., 30 minutes. How it is done:
Cyclic Nucleotide Phosphodiesterase (PDE) Assay
PDEV was isolated from rabbit and human tissues according to the protocol described by Boolell et al. (Boolell, M., Allen, M. J., Ballard, S. A., Ge[o-Attee, S., Muirhead, G. J., Naylor, A. M., Osterdoh, I. H., and Gingell, C) in International Journal of Impotence Research 1996 8, 47-52 with minor modifications.
Briefly, rabbit or human tissues were homogenized in an ice-cold buffer solution containing 20 mM HEPES (pH 7.2), 0.25M sucrose, 1 mM EDTA, and 1 mM phenylmethylsulphonyl fluoride (PMSF). The homogenates were centrifuged at 100,000 g for 60 minutes at 4° C. The supernatant was filtered through […] filter and loaded on a Pharmacia Mono Q anion exchange column (1 ml bed volume) that was equilibrated with 20 mM HEPES, 1 mM EDTA and 0.5 mM PMSF. After washing out unbound proteins, the enzymes were eluted with a linear gradient of 100-600 mM NaCl in the same buffer (35 to 50 ml total, depending on the tissue. Enzymes from the skeletal muscle, corpus cavernosum, retina, heart and platelet were eluted with 35, 40, 45, 50, and 50 ml respectively.) The column was run at a flow rate of 1 ml/min and 1 ml fractions were collected. […]
The assays were adapted to a 96-well format. […] An aliquot of 200 μl was taken and counted by liquid scintillation. PDE activity was expressed as pmol cyclic nucleotide hydrolyzed/min/ml of enzyme preparation. […]

A further series relates to men who suffer from ED. Particulars: cited from earlier work.

This is an account of results in patent US6800625B2, “Substituted 2,4-dihydro-pyrrolo[3,4-b]quinolin-9-one derivatives useful as phosphodiesterase inhibitors” (Janssen Pharmaceutica N.V., priority 2002, dated 2004).

As a reminder, the IC50 is the concentration that gives 50% inhibition.

As to `O=C1c2ccccc2NC23OC12CN(Cc1ccccc1)C3c1ccc2c(c1)OCO2` (centres unmarked) [Compound 1], on PDEV, the IC50 is 545 nM.

As to `O=c1c2ccccc2[nH]c2c(-c3ccc4c(c3)OCO4)n(Cc3ccccc3)cc12` [Compound 2], the midpoint of inhibition on PDEV, the IC50, lay at 299 nM.

As to `CCCc1nn(C)c2c(=O)[nH]c(-c3cc(S(=O)(=O)N4CCN(C)CC4)ccc3OCC)nc12` [sildenafil, 5-[2-ethoxy-5-(4-methylpiperazin-1-ylsulphonyl)phenyl]-1-methyl-3-n-propyl-6,7-dihydro-1H-pyrazolo[4,3-d]pyrimidin-7-one], the “improved sexual function, share of men” value with men who suffer from ED (men who suffer from ED of psychogenic or organic etiology, clinical studies) was “about 70%”. Also, the “improved erections, share of patients” value in the series with men who suffer from ED (patients who had undergone a radical prostatectomy, versus 15% on placebo) is recorded as 43%. In the series on men who suffer from ED (use of sildenafil, result from non-selective effects on a variety of tissues), the undesirable side effects entry is “headache, flushing and disrupted color vision”.
